Experimental data taken from the supplement of paper PMC11127212.

Experiments:
[1] = collision cross section (TWIMS, N2) of ion [M+H]+; higher = larger gas-phase ion cross section; conditions: ionization: ESI positive; LC: HILIC, pH 3.0 ammonium formate
Procedure: (§1)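 Reference standards (20-100 uM) were separated by HILIC UPLC (BEH HILIC, 45 °C): acidic pH 3.0 ammonium formate/formic acid for ESI+ and basic pH 9.0 ammonium acetate/ammonia for ESI-. They were analysed on a Synapt G2-Si traveling-wave IMS-QTOF with nitrogen drift gas (WH 30 V; WV 800 m/s in ESI+ and 1000 m/s in ESI-).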

[2] = retention time on BEH HILIC column (20 min gradient, 0.4 mL/min); higher = later elution; conditions: LC: HILIC
Procedure: as §1

[3] = collision cross section (TWIMS, N2) of ion [M-H]-; higher = larger gas-phase ion cross section; conditions: ionization: ESI negative; LC: HILIC, pH 9.0 ammonium acetate
Procedure: as §1

[4] = ionization: ESI negative, pH 9.0 ammonium acetate
[5] = ionization: ESI positive, pH 3.0 ammonium formate

SMILES	collision cross section [1]	retention time on BEH HILIC column [2, 4]	retention time on BEH HILIC column [2, 5]	collision cross section [3]
CCCCCCC(=O)OC [Methyl heptanoate]	137.86 Å²	1.13 min	0.84 min	137.2 Å²
CC/C=C\C/C=C\C/C=C\C/C=C\C/C=C\CCCC(=O)O [Eicosapentaenoic acid]	177.23 Å²	0.72 min	0.75 min	190.11 Å²
CC(C)[C@H](N)C(=O)O [L-valine]	123.49 Å²	6.85 min	6.79 min	126.43 Å²
CCC(C)CCC(=O)O (stereo not drawn) [4-methylhexanoic acid]	137.57 Å²	0.88 min	0.99 min	134.11 Å²
CC[C@H](C)[C@H](N)C(=O)O [L-isoleucine]	133.13 Å²	6.68 min	6.47 min	129.46 Å²
CCCCC/C=C\C/C=C\C/C=C\C/C=C\CCCC(=O)O [Arachidonic acid]	178.98 Å²	0.72 min	0.77 min	186.98 Å²
N[C@@H](CCC(=O)N[C@@H](CS)C(=O)NCC(=O)O)C(=O)O [Glutathione]	166.01 Å²	9.37 min	9.46 min	166.5 Å²
Nc1ncnc2c1ncn2[C@@H]1O[C@@H]2COP(=O)(O)O[C@H]2[C@H]1O [cAMP]	174.12 Å²	6.8 min	6.85 min	171.56 Å²
NCCS(=O)(=O)O [Taurine]	126.38 Å²	6.14 min	6 min	119.39 Å²
NCCCC[C@H](N)C(=O)O [L-lysine]	131.69 Å²	11.6 min	11.3 min	135.63 Å²
Nc1ncnc2c1ncn2[C@@H]1O[C@H](CO)[C@@H](O)[C@H]1O [Adenosine]	155.89 Å²	2.36 min	2.24 min	155.95 Å²
N[C@@H](Cc1ccccc1)C(=O)O [L-phenylalanine]	137.14 Å²	6.02 min	5.92 min	138.51 Å²
N[C@@H](CCC(=O)N[C@@H](CSSC[C@H](NC(=O)CC[C@H](N)C(=O)O)C(=O)NCC(=O)O)C(=O)NCC(=O)O)C(=O)O [Oxidized glutathione]	226.92 Å²	12.5 min	12.6 min	216.04 Å²
C=C1CC[C@H](O)C/C1=C/C=C1\CCC[C@]2(C)[C@@H]([C@H](C)CCCC(C)C)CC[C@@H]12 [Vitamin D3]	206.18 Å²	17.5 min	0.73 min	201.16 Å²
CC(C)C[C@H](N)C(=O)O [L-leucine]	131.44 Å²	6.46 min	6.26 min	131.1 Å²
N=C(N)NCCC[C@H](N)C(=O)O [L-arginine]	136.63 Å²	11.1 min	10.8 min	136.62 Å²
Nc1ncnc2c1ncn2[C@@H]1O[C@H](COP(=O)(O)O)[C@@H](O)[C@H]1O [AMP]	167.89 Å²	12 min	9.15 min	175.53 Å²
N[C@@H](CSSC[C@H](N)C(=O)O)C(=O)O [L-cystine]	146.43 Å²	12 min	11.4 min	143.16 Å²

Further lines, results first:

collision cross section [1]	retention time on BEH HILIC column [2, 4]	retention time on BEH HILIC column [2, 5]	collision cross section [3]	SMILES
148.62 Å²	1.78 min	1.88 min	153.03 Å²	O=C(O)CCCC[C@@H]1SC[C@@H]2NC(=O)N[C@@H]21 [Biotin]
248.16 Å²	11.8 min	12 min	256.25 Å²	CC(=O)SCCNC(=O)CCNC(=O)[C@H](O)C(C)(C)COP(=O)(O)OP(=O)(O)OC[C@H]1O[C@@H](n2cnc3c(N)ncnc32)[C@H](O)[C@@H]1OP(=O)(O)O [Acetyl-CoA]
182.66 Å²	3.11 min	5.57 min	184.43 Å²	Cc1cc2nc3c(=O)[nH]c(=O)nc-3n(C[C@H](O)[C@H](O)[C@H](O)CO)c2cc1C [Riboflavin]
250.07 Å²	10.6 min	10.5 min	243.71 Å²	Cc1cc2nc3c(=O)[nH]c(=O)nc-3n(C[C@H](O)[C@H](O)[C@H](O)COP(=O)(O)OP(=O)(O)OC[C@H]3O[C@@H](n4cnc5c(N)ncnc54)[C@H](O)[C@@H]3O)c2cc1C [FAD]
147.76 Å²	5.86 min	5.77 min	148.33 Å²	N[C@@H](Cc1c[nH]c2ccccc12)C(=O)O [L-tryptophan]
260.23 Å²	12.3 min	13.5 min	262.11 Å²	CC(C)(COP(=O)(O)OP(=O)(O)OC[C@H]1O[C@@H](n2cnc3c(N)ncnc32)[C@H](O)[C@@H]1OP(=O)(O)O)[C@@H](O)C(=O)NCCC(=O)NCCSC(=O)CCC(=O)O [Succinyl-CoA]
134.39 Å²	1.17 min	0.72 min	122.95 Å²	O=C1O[C@H]([C@@H](O)CO)C(O)=C1O [Ascorbic acid]
156.61 Å²	2.92 min	2.66 min	156.31 Å²	Nc1c(C(=O)O)c2nc3c(C(=O)O)cccc3oc-2cc1=O [Cinnavalininate]
135.88 Å²	4.13 min	4.01 min	134.49 Å²	O=C(O)c1cc(=O)c2ccccc2[nH]1 [Kynurenic acid]
133.36 Å²	5.34 min	3.02 min	125.59 Å²	O=c1[nH]c(=O)c2[nH]c(=O)[nH]c2[nH]1 [Uric acid]
126.02 Å²	5.48 min	6.77 min	123.74 Å²	O=C1CC[C@@H](C(=O)O)N1 [Pyroglutamic acid]
216.53 Å²	0.73 min	0.73 min	212.59 Å²	Cc1c(C)c2c(c(C)c1O)CC[C@@](C)(CCC[C@H](C)CCC[C@H](C)CCCC(C)C)O2 [a-tocopherol]
131.08 Å²	12.7 min	12.6 min	129.28 Å²	N[C@@H](Cc1cnc[nH]1)C(=O)O [L-histidine]
128.49 Å²	3.65 min	3.62 min	125.12 Å²	Nc1nc(=O)c2[nH]cnc2[nH]1 [Guanine]
144 Å²	11.2 min	11.3 min	142.48 Å²	N[C@@H](CCSC[C@H](N)C(=O)O)C(=O)O [L-cystathionine]
137.33 Å²	9.07 min	8.89 min	135.18 Å²	NC(=O)NCCC[C@H](N)C(=O)O [Citrulline]
137.05 Å²	0.88 min	0.9 min	141.98 Å²	O=C(O)Cc1c[nH]c2ccccc12 [Indoleacetic acid]
146.3 Å²	1.47 min	1.47 min	153.03 Å²	O=c1ccn([C@@H]2O[C@H](CO)[C@@H](O)[C@H]2O)c(=O)[nH]1 [Uridine]
136.81 Å²	4.65 min	4.47 min	136.52 Å²	O=C(O)c1cc(O)c2cccc(O)c2n1 [Xanthurenic acid]
